# Values joined by “and” are separate entries in the source; they are usually repeats but may differ in a detail not shown here. Equal entries are not always repeated. *1 amine or outer side, *2 acyl side, *3 side chain or, on linkers, in order; H or OH if unused. Where a SMILES comes first, the peptide text is derived from it. [ ]: non-standard residue; d: D form. The star is where a group is joined. Dolaproine = CO[C@@H]([C@@H]1CCCN1)[C@@H](C)C(=O)O; Dil = CC[C@H](C)[C@H](NC)[C@@H](CC(=O)O)OC; PABC = O=C(OCc1ccc(N[*:1])cc1)[*:2]; X1 = C[C@@H](N*)[C@@H](O)c1ccccc1; NMeV = CN[C@H](C(=O)O)C(C)C
# Assays:
# [1] = system: SK-OV-3 human ovarian cancer cells; experiment: In vitro antiproliferative activity, MTT, 72 h continuous treatment (no-washout); assay type: cell-based; conditions: MTT, 72 h continuous treatment, no washout, 5% serum final; triplicate, repeated three times
# Protocol: (§1) U87MG human malignant glioma, SK-MEL-28 human melanoma, SK-OV-3 human ovarian cancer, and A549 human lung cancer cell lines were purchased from ATCC. The cells were cultured in Dulbecco’s Modified Eagle’s Medium (DMEM; Biosera, Nuaille, France), supplemented with 10% heat-inactivated Fetal Bovine Serum (FBS; Biosera), and with 1% Penicillin/Streptomycin (Biosera). Cells were cultured in sterile T75 flasks with ventilation cap (Sarstedt, Nümbrecht, Germany) at 37 °C in a humidified atmosphere with 5% CO2 in ESCO CelCulture Incubator (ESCO, Friedberg, Germany). Manipulations with the cells were performed in biosafety cabinet (laminar) ESCO Sentinel Gold class II model AC2-4E8 (ESCO).
# (§2) After standard trypsinization and harvesting cells by trypsin (Biosera), ethylenediaminetetraacetic acid (EDTA; Biosera) and PBS solution, 6×10^3 cells per well were seeded in serum containing (10%) growth medium to 96-well plates with flat bottom (Eppendorf, Hamburg, Germany), in a 100 μL volume per well, and incubated at 37°C.
# (§3) In the wash out experiment, cells were incubated with the compounds (5% serum final) for 30 min, then they were washed out, and additionally incubated in growth medium (5% serum final) up to 72 h. The control wells were treated only with serum free medium (5% serum final).
# (§4) For the evaluation of the in vitro antiproliferative activity of compounds, the cell viability was determined by MTT assay (3-(4,5-dimethylthiazol-2-yl)-2,5-diphenyl-tetrazolium bromide) obtained from Duchefa Biochemie (Haarlem, Netherlands).
# (§5) 22 µL of MTT solution (5 mg/mL in PBS, 0.5 mg/mL final) was added to each well and after 2 h incubation at 37°C, the supernatant was removed. […] Average background absorbance (DMSO-Ethanol) was subtracted from absorbance values of control and treated wells, and cell viability was determined relative to untreated (control) wells where cell viability was arbitrarily set to 100%. […] The experiments were done in triplicate and each experiment was repeated three times.
# [2] = system: A549 human lung cancer cells; experiment: as above; assay type: cell-based; conditions: MTT, 72 h continuous treatment, no washout, 5% serum final; αVβ3 low expressing line; triplicate, repeated three times
# Protocol: as §1, §2, §3, §4, §5
# [3] = system: SK-MEL-28 human melanoma cells; experiment: In vitro antiproliferative activity, "kiss-and-run" washout experiment (30 min + washout + up to 72 h); assay type: cell-based; conditions: MTT, 30 min treatment, washout, further incubation up to 72 h, 5% serum final
# Protocol: as §1, §2, §3, §4, §5
# (§6) Recently, a new protocol for evaluating the antiproliferative activity and the targeting ability of integrin-ligand based conjugates was developed by the group of Prof. […] In this procedure, which we named “kiss-and-run” experiment, after very short initial contact times (15–30 min) of the toxin with the cells in vitro, the solution is drained, and cells are resuspended in the culture medium for a 72 h incubation. This protocol is aimed at simulating the rapid clearance of the drugs that occurs in vivo in the extracellular tumor environment, thus highlighting the ability of the conjugate to bind the integrin receptor on the cell surface.
# [4] = system: U87MG human malignant glioma cells; experiment: as above; assay type: cell-based; conditions: MTT, 30 min treatment, washout, further incubation up to 72 h, 5% serum final
# Protocol: as §1, §2, §3, §4, §5, §6
# [5] = system: SK-OV-3 human ovarian cancer cells; experiment: as above; assay type: cell-based; conditions: MTT, 30 min treatment, washout, further incubation up to 72 h, 5% serum final
# Protocol: as §1, §2, §3, §4, §5, §6
# [6] = system: A549 human lung cancer cells; experiment: as above; assay type: cell-based; conditions: MTT, 30 min treatment, washout, further incubation up to 72 h, 5% serum final; αVβ3 low expressing line
# Protocol: as §1, §2, §3, §4, §5, §6
# [7] = system: SK-MEL-28 cells; experiment: In vitro antiproliferative activity in the presence of MMP-2 inhibitor; assay type: cell-based, human; conditions: 16 h pre-incubation with MMP-2 inhibitor 10 µM, then 72 h continuous treatment, 5% serum final; average ± SD, triplicate; read-out: IC50 MMP-2 inhibitor + Treatment 72 h SK-MEL-28 (αVβ3 +)
# Protocol: as §4
# (§7) 22 µL of MTT solution (5 mg/mL in PBS, 0.5 mg/mL final) was added to each well and after 2 h incubation at 37°C, the supernatant was removed. The precipitated purple formazan crystals were dissolved in 100 µL of a 1:1 solution of dimethylsulfoxide (DMSO; Merck, St. Louis, MO, United States): 96% Ethanol (Molar Chemicals Kft., Halásztelek, Hungary) and the absorbance was measured after 15 min at λ = 570 nm by using microplate reader CLARIOstar Plus (BMG Labtech, Ortenberg, Germany). Average background absorbance (DMSO-Ethanol) was subtracted from absorbance values of control and treated wells, and cell viability was determined relative to untreated (control) wells where cell viability was arbitrarily set to 100%. Absorbance values of treated samples were normalized versus untreated control samples and interpolated by nonlinear regression analysis with GraphPad Prism 6 software (GraphPad, La Jolla, San Diego, CA, United States) to generate sigmoidal dose-response curves from which the 50% inhibitory concentration (IC50) values of the compounds were calculated and presented as nanomolar (nM) units. The experiments were done in triplicate and each experiment was repeated three times.
# (§8) The conjugate 2 and the free MMAE were tested in presence of the MMP-2 inhibitor cis-9-octadecenoyl-N-hydroxylamine (Merck) dissolved in DMSO ([You et al., 2018]). The three αVβ3 integrin and MMP-2 overexpressing cancer cell lines (U87MG, SK-MEL-28, […]) were seeded with serum containing medium ([Ellijimi et al., 2018]; [Shim et al., 2019]) and, after 8 h, were washed-out. Then, 100 µL per well of MMP-2 inhibitor (10 µM final concentration) were added and cells were incubated for 16 h, prior to the treatment. Later, the conjugate 2 and free MMAE were dissolved in 10% serum containing medium and added to reach the same concentrations evaluated in the previous test in a final volume of 100 µL per well and incubated (5% serum final) continuously for 72 h of the treatment. The experiments were performed in triplicate.
# [8] = system: SK-OV-3 cells; experiment: as above; assay type: cell-based, human; conditions: 16 h pre-incubation with MMP-2 inhibitor 10 µM, then 72 h continuous treatment, 5% serum final; average ± SD, triplicate; read-out: IC50 MMP-2 inhibitor + Treatment 72 h SK-OV-3 (αVβ3 +)
# Protocol: as §4, §7, §8
# [9] = system: U87MG cells; experiment: as above; assay type: cell-based, human; conditions: 16 h pre-incubation with MMP-2 inhibitor 10 µM, then 72 h continuous treatment, 5% serum final; average ± SD, triplicate; read-out: IC50 MMP-2 inhibitor + Treatment 72 h U87MG (αVβ3 +)
# Protocol: as §4, §7, §8
# [10] = system: SK-MEL-28 human melanoma cells; experiment: In vitro antiproliferative activity, MTT, 72 h continuous treatment (no-washout); assay type: cell-based; conditions: MTT, 72 h continuous treatment, no washout, 5% serum final; triplicate, repeated three times
# Protocol: as §1, §2
# (§9) […] The control wells were treated only with serum free medium (5% serum final).
# as §4, §5
# [11] = system: U87MG human malignant glioma cells; experiment: as above; assay type: cell-based; conditions: MTT, 72 h continuous treatment, no washout, 5% serum final; triplicate, repeated three times
# Protocol: as §1, §2, §9, §4, §5
# [12] = molecular target: T1, recombinant human MMP-2 protein (Active) (Homo sapiens, UniProt P08253); experiment: Enzymatic-cleavage assay with MMP-2 enzyme; assay type: in vitro ADME; conditions: recombinant human MMP-2, enzyme:linker 1:20 (w/w), Tris·HCl buffer pH 7.4, 37 °C, 74 h, HPLC-UV 254 nm, by retention time vs free MMAE
# T1 construct: with the active form of MMP-2 enzyme; purchased Abcam ab81550
# T1 sequence (P08253 110-660): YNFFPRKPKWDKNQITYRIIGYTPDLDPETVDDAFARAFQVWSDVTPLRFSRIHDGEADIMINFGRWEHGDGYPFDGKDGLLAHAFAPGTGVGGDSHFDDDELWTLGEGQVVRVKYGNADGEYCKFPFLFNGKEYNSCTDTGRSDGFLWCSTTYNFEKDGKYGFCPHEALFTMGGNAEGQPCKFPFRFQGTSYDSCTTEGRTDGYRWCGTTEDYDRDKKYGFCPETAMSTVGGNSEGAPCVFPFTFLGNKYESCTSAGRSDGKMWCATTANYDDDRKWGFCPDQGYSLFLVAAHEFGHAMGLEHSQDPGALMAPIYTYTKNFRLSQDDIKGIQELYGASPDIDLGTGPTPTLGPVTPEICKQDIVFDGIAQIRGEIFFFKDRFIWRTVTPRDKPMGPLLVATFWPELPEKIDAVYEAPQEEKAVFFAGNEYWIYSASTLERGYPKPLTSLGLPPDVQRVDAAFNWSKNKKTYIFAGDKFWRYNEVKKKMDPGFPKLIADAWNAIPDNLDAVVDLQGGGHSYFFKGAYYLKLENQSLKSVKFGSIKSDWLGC
# Protocol: The cleavage test with the MMP-2 enzyme was performed using recombinant human MMP-2 protein (Active) purchased from Abcam (ab81550). A buffer solution Tris∙HCl (50 mM), NaCl (0.2 M), CaCl2 (10 mM), Brij-35 (0.05%), ZnSO4 (50 µM), pH 7.4 was prepared in accordance with the literature ([Tauro et al., 2008]). A solution of EDTA (50 mM) was prepared for stopping the MMP-2 activity. For the assay, the MMP-2 enzyme (10 µg) was diluted with 100 µL Milli-Q Water, accordingly to the data sheet. A solution of the H2N-GPLG-PABC-MMAE 7 was prepared (0.105 mg in 0.881 mL of buffer solution). To start the assay, 25 µL MMP-2 enzyme was added to 475 µL of the linker solution to have 1:20 (w/w) enzyme: linker ratio. […] The resulting solution was diluted with 180 µL Milli-Q Water and 70 µL of acetonitrile (MeCN) and analyzed by analytical HPLC SHIMADZU LC-20AP equipped with diode array UV detector and LiChrosorb RP-18 (5 μm) C18 column. […]
# Samples were analyzed using analytical HPLC SHIMADZU LC -20AP equipped with diode array UV detector and LiChrosorb® RP-18 (5 μm) C18 column, flow rate: 1 mL/min., gradient: from 90% (H2O + 0.1% TFA) / 10% (MeCN) to 40% (H2O + 0.1% TFA) / 60% (MeCN) in 16 min. to 10% (H2O + 0.1% TFA) / 90% (MeCN) in 9 min. to 10% (H2O + 0.1% TFA) / 90% (MeCN) in 5 min. to 90% (H2O + 0.1% TFA) / 10% (MeCN) in 5 min. to 90% (H2O + 0.1% TFA) / 10% (MeCN) in 5 min. […]
SMILES,IC50 [1],IC50 [2],IC50 [3],IC50 [4],IC50 [5],IC50 [6],IC50 [7],IC50 [8],IC50 [9],IC50 [10],IC50 72h SK-MEL-28 [10],IC50 [11],release of free MMAE on incubation with active MMP-2 [12]
"CC[C@H](C)[C@@H]([C@@H](CC(=O)N1CCC[C@H]1[C@H](OC)[C@@H](C)C(=O)N[C@H](C)[C@@H](O)c1ccccc1)OC)N(C)C(=O)[C@@H](NC(=O)[C@@H](NC)C(C)C)C(C)C [MMAE, monomethyl auristatin E] (H-[NMeV]V[Dil][Dolaproine]-X1)",0.03 nM and 0.0307 nM,0.0688 ± 0.0021 nM,1400 ± 137 nM,2130 ± 216 nM,206 ± 23.6 nM,266 ± 16.1 nM,1.9 ± 0.778 nM,0.0334 ± 0.0119 nM,0.374 ± 0.132 nM,2.39 ± 0.395 nM,very low nanomolar range,0.225 ± 0.0126 nM,
"CCCCCCCC/C=C\CCCCCCCC(=O)NO [MMP-2 Inhibitor, cis-9-octadecenoyl-N-hydroxylamide]",,,,,,,> 20000 nM,> 20000 nM,> 20000 nM,,,,
"CC[C@H](C)[C@@H]([C@@H](CC(=O)N1CCC[C@H]1[C@H](OC)[C@@H](C)C(=O)N[C@H](C)[C@@H](O)c1ccccc1)OC)N(C)C(=O)[C@@H](NC(=O)[C@H](C(C)C)N(C)C(=O)OCc1ccc(NC(=O)CNC(=O)[C@H](CC(C)C)NC(=O)[C@@H]2CCCN2C(=O)CN)cc1)C(C)C [compound 7, H2N-GPLG-PABC-MMAE] (H-GPLG[PABC][NMeV]V[Dil][Dolaproine]-X1)",,,,,,,,,,,,,not observed
"N=C(N)NCCC[C@@H]1NC(=O)CNC(=O)C[C@@H](C(=O)O)NC(=O)C[C@H]2NC(=O)[C@H](CNC1=O)N(Cc1ccccc1)C2=O [compound 10, cyclo[DKP-isoDGR], reference compound]",,,> 20000 nM,> 20000 nM,> 20000 nM,> 20000 nM,,,,,,,

# Reference: PMC10363981, “Optimizing the enzymatic release of MMAE from isoDGR-based small molecule drug conjugate by incorporation of a GPLG-PABC enzymatically cleavable linker” (Frontiers in Pharmacology, 2023)
